Reference: patent US9695155B2, “Herbicidal substituted pyrimidinyloxy benzene compounds” (E. I. DU PONT DE NEMOURS AND COMPANY, priority 2013, dated 2017)

Key:
[1] = system: morningglory; test: Test A postemergence; type: in vivo, Ipomoea spp.
Method in brief: (§1)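 Compounds in non-phytotoxic solvent with surfactant applied as soil spray preemergence, or postemergence to plants 2-10 cm at one- to two-leaf stage, in loam/sand. After approximately 10 days in greenhouse, injury rated visually versus untreated controls, 0 (no effect) to 100 (complete control).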

[2] = system: sedge, umbrella; test: Test B flooded paddy test; type: in vivo, Cyperus difformis; details: Flood, 250 g ai/ha; 0 to 100 scale where 0 is no effect and 100 is complete control
Method in brief: (§2)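 Post-emergence paddy-water application at the 2-leaf stage, with 3 cm flood kept for the whole test. Response was judged visually relative to controls after 13 to 15 greenhouse days, 0 indicating no effect and 100 complete control.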

[3] = system: pigweed; test: Test A postemergence; type: in vivo, Amaranthus retroflexus
Method in brief: as §1

[4] = system: velvetleaf; test: Test A postemergence; type: in vivo, Abutilon theophrasti
Method in brief: as §1

[5] = system: barnyardgrass; test: Test A postemergence; type: in vivo, Echinochloa crus-galli
Method in brief: as §1

[6] = system: barnyardgrass; test: Test A preemergence; type: in vivo, Echinochloa crus-galli
Method in brief: as §1

[7] = system: velvetleaf; test: Test A preemergence; type: in vivo, Abutilon theophrasti
Method in brief: as §1

[8] = system: pigweed; test: Test A preemergence; type: in vivo, Amaranthus retroflexus
Method in brief: as §1

[9] = system: giant foxtail; test: Test A postemergence; type: in vivo, Setaria faberii
Method in brief: as §1

[10] = system: barnyardgrass; test: Test C flooded paddy test; type: in vivo, Echinochloa crus-galli; details: Flood, scale 0 to 100 (0 no effect, 100 complete control), 13 to 15 days
From the text: (§3) At time of treatment, test pots were flooded to 3 cm above the soil surface, treated by application of test compounds directly to the paddy water, and then maintained at that water depth for the duration of the test. Treated plants and controls were maintained in a greenhouse for 13 to 15 days, after which time all species were compared to controls and visually evaluated. […] A dash (-) response means no test result.

[11] = system: corn; test: Test A preemergence; type: in vivo, Zea mays
Method in brief: as §1

[12] = system: giant foxtail; test: Test A preemergence; type: in vivo, Setaria faberii
Method in brief: as §1

[13] = system: wheat; test: Test A postemergence; type: in vivo, Triticum aestivum
Method in brief: as §1

[14] = system: ducksalad; test: Test C flooded paddy test; type: in vivo, Heteranthera limosa; details: Flood, scale 0 to 100 (0 no effect, 100 complete control), 13 to 15 days
From the text: as §3

[15] = system: rice; test: Test C flooded paddy test; type: in vivo, Oryza sativa; details: Flood, scale 0 to 100 (0 no effect, 100 complete control), 13 to 15 days
From the text: as §3

[16] = system: corn; test: Test A postemergence; type: in vivo, Zea mays
Method in brief: as §1

[17] = system: large (Lg) crabgrass; test: Test A postemergence; type: in vivo, Digitaria sanguinalis
Method in brief: as §1

[18] = system: large (Lg) crabgrass; test: Test A preemergence; type: in vivo, Digitaria sanguinalis
Method in brief: as §1

[19] = system: wheat; test: Test A preemergence; type: in vivo, Triticum aestivum
Method in brief: as §1

[20] = system: rice; test: Test B flooded paddy test; type: in vivo, Oryza sativa; details: Flood, 250 g ai/ha; 0 to 100 scale where 0 is no effect and 100 is complete control
Method in brief: as §2

[21] = system: sedge, umbrella; test: Test C flooded paddy test; type: in vivo, Cyperus difformis; details: Flood, scale 0 to 100 (0 no effect, 100 complete control), 13 to 15 days
From the text: as §3

[22] = system: barnyardgrass; test: Test B flooded paddy test; type: in vivo, Echinochloa crus-galli; details: Flood, 250 g ai/ha; 0 to 100 scale where 0 is no effect and 100 is complete control
Method in brief: as §2

[23] = system: Heteranthera limosa; test: Test B flooded paddy test; type: in vivo; details: Flood, 250 g ai/ha; 0 to 100 scale where 0 is no effect and 100 is complete control
Method in brief: as §2

[24] = 125 g ai/ha, 0 to 100 scale where 0 is no effect and 100 is complete control
[25] = 500 g ai/ha, 0 to 100 scale, 0 no effect, 100 complete control
[26] = 500 g ai/ha, 0 to 100 scale, 0 no effect, 100 complete control, approx. 10 days

SMILES: Clc1cnc(Oc2ccccc2-n2cnc(Br)c2)nc1 [Compound 34]
- Plant response rating, Morningglory [1, 24]: 60
- Plant response rating, Morningglory [1, 25]: 80
- Plant response rating, Sedge, Umbrella [2]: 90
- Plant response rating, Pigweed [3, 24]: 90
- Plant response rating, Pigweed [3, 25]: 100
- Plant response rating, Velvetleaf [4, 24]: 80
- Plant response rating, Velvetleaf [4, 25]: 100
- Plant response rating, Barnyardgrass [5, 24]: 20
- Plant response rating, Barnyardgrass [5, 25]: 50
- Plant response rating, Barnyardgrass [6, 24]: 0
- Barnyardgrass plant response rating [6, 26]: 50
- Plant response rating, Velvetleaf [7, 24]: 60
- Velvetleaf plant response rating [7, 26]: 80
- Plant response rating, Pigweed [8, 24]: 80
- Pigweed plant response rating [8, 26]: 100
- Plant response rating, Foxtail, Giant [9, 24]: 30
- Plant response rating, Foxtail, Giant [9, 25]: 70
- Plant response rating, Barnyardgrass ([10]; 31 g ai/ha): 0
- Plant response rating, Barnyardgrass ([10]; 62 g ai/ha): 0
- Plant response rating, Barnyardgrass ([10]; 125 g ai/ha): 0
- Plant response rating, Barnyardgrass ([10]; 250 g ai/ha): 10
- Plant response rating, Corn [11, 24]: 0
- Corn plant response rating [11, 26]: 0
- Plant response rating, Foxtail, Giant [12, 24]: 30
- Foxtail, Giant plant response rating [12, 26]: 100
- Plant response rating, Wheat [13, 24]: 0
- Plant response rating, Wheat [13, 25]: 20
- Plant response rating, Ducksalad ([14]; 31 g ai/ha): 0
- Plant response rating, Ducksalad ([14]; 62 g ai/ha): 0
- Plant response rating, Ducksalad ([14]; 125 g ai/ha): 20
- Plant response rating, Ducksalad ([14]; 250 g ai/ha): 75
- Plant response rating, Rice ([15]; 31 g ai/ha): 0
- Plant response rating, Rice ([15]; 62 g ai/ha): 0
- Plant response rating, Rice ([15]; 125 g ai/ha): 0
- Plant response rating, Rice ([15]; 250 g ai/ha): 0
- Plant response rating, Corn [16, 24]: 10
- Plant response rating, Corn [16, 25]: 20
- Plant response rating, Crabgrass, Large [17, 24]: 50
- Plant response rating, Crabgrass, Large [17, 25]: 60
- Plant response rating, Crabgrass, Large [18, 24]: 70
- Crabgrass, Large plant response rating [18, 26]: 90
- Plant response rating, Wheat [19, 24]: 0
- Wheat plant response rating [19, 26]: 0
- Plant response rating, Rice [20]: 30
- Plant response rating, Sedge, Umbrella ([21]; 31 g ai/ha): 0
- Plant response rating, Sedge, Umbrella ([21]; 62 g ai/ha): 0
- Plant response rating, Sedge, Umbrella ([21]; 125 g ai/ha): 0
- Plant response rating, Sedge, Umbrella ([21]; 250 g ai/ha): 70
- Plant response rating, Barnyardgrass [22]: 20
- Plant response rating, Ducksalad [23]: 90
